Data on 3 compounds can be found in patent publication US5073549A, “BU-4164E - A and B, prolyl endopeptidase inhibitors and their methods of use” (Bristol-Myers Squibb Company, priority 1990, dated 1991).

Where a SMILES comes first, the peptide text is derived from it. [ ]: non-standard residue; d: D form. The star is where a group is joined. ξ: configuration not given here. Cbz = O=C(OCc1ccccc1)*; ξP = O=C(O)C1CCCN1

The target of series [1] is T1, Flavobacterium meningosepticum PED (Elizabethkingia meningoseptica, UniProt P27028).
T1 construct: purchased Seikagaku Kogyo Co. Ltd
Kind of series: Prolyl endopeptidase inhibition assay (Flavobacterium enzyme, Z-Gly-Pro-pNA substrate). The class given is biochemical. The settings on record: pre-incubated 30 minutes at 30° C., pH 7.0. On the procedure:
(§1) Two enzymes were used: Flavobacterial enzyme for the screening and the isolation study and partially purified rabbit brain enzyme for in vitro evaluation. Ten μl of Flavobacterium meningosepticum PED,^10, 11 (Seikagaku Kogyo Co. Ltd., 0.5 unit/ml in 50 mM phosphate buffer, pH 7.0) or rabbit brain PED partially purified from the whole brain homogenate^12, 13.5 μl of a test sample and 86.5 μl of 100 mM phosphate buffer (pH 7.0) were mixed in a well of a 96-well microplate and pre-incubated for about 30 minutes at about 30° C. The reaction was started by addition of 25 μl of 2 mM carbobenzyloxyglycyl-prolyl-p-nitroanilide (Z-Gly-Pro-pNA) in 40% dioxane-100 mM phosphate buffer, pH 7.0. After about 5 minute-incubation at about 30° C., the amount of released p-nitroaniline was determined colorimetrically with a microplate autoreader (Titertek Multiskan® MMC) at 414 nm. For control, the reaction buffer was added to the reaction mixture instead of the test sample. The percentage of inhibition was calculated by the following equation: [formula]

A further series deals with T2, rabbit brain PED (Oryctolagus cuniculus, UniProt A0A5F9CCV6).
T2 construct: rabbit brain PED partially purified from the whole brain homogenate; from tissue; host or cells: rabbit whole brain homogenate
Put plainly: Prolyl endopeptidase inhibition assay (partially purified rabbit brain enzyme, Z-Gly-Pro-pNA substrate). The class given is biochemical. To be noted: pre-incubated 30 minutes at 30° C., pH 7.0. As for the experimental part:
as §1

Series [2] in a line: Solubility (physico-chemical properties). The format is physicochemical. To be noted: for Solubility: Table 3.

T1 sequence (P27028 21-705): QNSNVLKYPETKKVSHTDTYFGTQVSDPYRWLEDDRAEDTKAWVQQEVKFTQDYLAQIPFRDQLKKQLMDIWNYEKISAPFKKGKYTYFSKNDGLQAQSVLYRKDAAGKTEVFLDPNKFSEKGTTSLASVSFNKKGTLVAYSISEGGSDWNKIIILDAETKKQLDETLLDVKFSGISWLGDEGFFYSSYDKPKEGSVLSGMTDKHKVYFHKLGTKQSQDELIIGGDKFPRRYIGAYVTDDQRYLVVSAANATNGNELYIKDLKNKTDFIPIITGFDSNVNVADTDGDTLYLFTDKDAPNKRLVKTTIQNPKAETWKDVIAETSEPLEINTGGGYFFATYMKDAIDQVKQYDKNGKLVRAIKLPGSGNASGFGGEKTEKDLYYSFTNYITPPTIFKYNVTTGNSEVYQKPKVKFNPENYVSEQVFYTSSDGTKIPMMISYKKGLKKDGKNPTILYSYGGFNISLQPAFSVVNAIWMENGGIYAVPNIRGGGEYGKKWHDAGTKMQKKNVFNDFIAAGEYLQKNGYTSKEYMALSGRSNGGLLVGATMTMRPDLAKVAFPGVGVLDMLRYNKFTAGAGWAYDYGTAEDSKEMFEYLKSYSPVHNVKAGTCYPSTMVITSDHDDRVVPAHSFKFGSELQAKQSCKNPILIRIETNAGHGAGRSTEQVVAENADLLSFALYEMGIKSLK
T2 sequence (A0A5F9CCV6 1-707): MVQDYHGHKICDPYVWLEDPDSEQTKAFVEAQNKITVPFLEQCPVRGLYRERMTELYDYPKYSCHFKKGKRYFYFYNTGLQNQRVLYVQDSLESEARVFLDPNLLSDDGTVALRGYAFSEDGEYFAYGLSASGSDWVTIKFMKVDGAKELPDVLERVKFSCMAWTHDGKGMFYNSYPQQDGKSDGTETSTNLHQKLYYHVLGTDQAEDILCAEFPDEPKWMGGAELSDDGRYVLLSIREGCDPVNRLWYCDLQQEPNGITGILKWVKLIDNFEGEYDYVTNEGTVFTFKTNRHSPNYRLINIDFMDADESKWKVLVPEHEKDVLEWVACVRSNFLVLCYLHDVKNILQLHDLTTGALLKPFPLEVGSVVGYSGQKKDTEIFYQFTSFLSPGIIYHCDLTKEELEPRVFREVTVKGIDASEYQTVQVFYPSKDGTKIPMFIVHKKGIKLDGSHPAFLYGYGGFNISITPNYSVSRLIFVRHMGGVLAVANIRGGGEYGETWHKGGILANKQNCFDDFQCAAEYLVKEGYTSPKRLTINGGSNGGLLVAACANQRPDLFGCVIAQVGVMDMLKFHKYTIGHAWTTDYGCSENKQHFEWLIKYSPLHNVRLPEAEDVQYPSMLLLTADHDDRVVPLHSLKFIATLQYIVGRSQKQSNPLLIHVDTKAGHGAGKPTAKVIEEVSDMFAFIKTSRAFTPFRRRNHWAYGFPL

Regarding `CC(C)[C@H](NC(=O)OCc1ccccc1)C(=O)N1CCCC1C=O` (stereo partly drawn) [Z-Val-prolinal, reference compound] (Cbz-Val-[ξP]-aldehyde), the “PED inhibitory activity IC50, Flavobacterium” value in series [1] was 3.6 ng/mL. Moreover, the “PED inhibitory activity IC50, Rabbit brain” value at rabbit brain PED stood at 16 ng/mL.

As for `CCC(C)CC/C=C/C(=O)NC1CCCNC(=O)C(CC(C)C)NC(=O)C(=O)C(C)NC1=O` (stereo not drawn) [BU-4164E B], the “PED inhibitory activity IC50, Flavobacterium” value in series [1] was 2.1 ng/mL. Moreover, at rabbit brain PED, the “PED inhibitory activity IC50, Rabbit brain” value was found to be 31 ng/mL. In addition, in series [2], the Solubility result is on record as “Soluble in DMSO”; the “Solubility in dimethyl sulfoxide” value was “soluble”; the “Solubility in other organic solvents and water” value is listed as “practically insoluble”.

Regarding `CC(C)CC/C=C/C(=O)NC1CCCNC(=O)C(CC(C)C)NC(=O)C(=O)C(C)NC1=O` (stereo not drawn) [BU-4164E A], the “PED inhibitory activity IC50, Flavobacterium” value in series [1] was determined as 3.7 ng/mL. In addition, the “PED inhibitory activity IC50, Rabbit brain” value at rabbit brain PED was found to be 85 ng/mL. Also, in series [2], the Solubility entry is on record as “Soluble in DMSO”; the “Solubility in dimethyl sulfoxide” value is “soluble”; the “Solubility in other organic solvents and water” value was “practically insoluble”.
